The term IC50 denotes the concentration needed to halve the response being measured.

Among the data in patent publication US10583137B2, “Triazole DAGLα inhibitors” (THE SCRIPPS RESEARCH INSTITUTE, priority 2015, dated 2020) are inhibition and IC50 values, retold here.

One test addresses DAGLα (hDAGLα-FLAG) (Homo sapiens (Human), UniProt Q9Y4D2). Nature of the test: competitive ABPP, membrane proteome of transfected HEK293T cells. It is filed as biochemical. Particulars: for inhibition at 0.0032 µM: 3.2 nM, read-out: DAGLα % inh. 3.2 nM; for IC50: read-out: DAGLα IC50. The gist of the method:
(§1)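 HEK293T membrane proteome (1 mg/ml) expressing FLAG-tagged human DAGLα or DAGLβ, treated 30 min at room temperature with compound, then 30 min with HT-01 or FP-Rh probe (1 μM). Bands separated by SDS-PAGE were normalized to DMSO for IC50 by variable-slope fit.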

Another test concerns the target DAGLβ (hDAGLβ-FLAG) (Homo sapiens (Human), UniProt Q8NCG7). The test is described as above. It is filed as biochemical. Particulars: for inhibition at 0.0032 µM: read-out: DAGLβ % inh. 3.2 nM; for IC50: read-out: DAGLβ IC50. The gist of the method:
as §1

Chain of DAGLα (hDAGLα-FLAG) (Q9Y4D2 whole entry): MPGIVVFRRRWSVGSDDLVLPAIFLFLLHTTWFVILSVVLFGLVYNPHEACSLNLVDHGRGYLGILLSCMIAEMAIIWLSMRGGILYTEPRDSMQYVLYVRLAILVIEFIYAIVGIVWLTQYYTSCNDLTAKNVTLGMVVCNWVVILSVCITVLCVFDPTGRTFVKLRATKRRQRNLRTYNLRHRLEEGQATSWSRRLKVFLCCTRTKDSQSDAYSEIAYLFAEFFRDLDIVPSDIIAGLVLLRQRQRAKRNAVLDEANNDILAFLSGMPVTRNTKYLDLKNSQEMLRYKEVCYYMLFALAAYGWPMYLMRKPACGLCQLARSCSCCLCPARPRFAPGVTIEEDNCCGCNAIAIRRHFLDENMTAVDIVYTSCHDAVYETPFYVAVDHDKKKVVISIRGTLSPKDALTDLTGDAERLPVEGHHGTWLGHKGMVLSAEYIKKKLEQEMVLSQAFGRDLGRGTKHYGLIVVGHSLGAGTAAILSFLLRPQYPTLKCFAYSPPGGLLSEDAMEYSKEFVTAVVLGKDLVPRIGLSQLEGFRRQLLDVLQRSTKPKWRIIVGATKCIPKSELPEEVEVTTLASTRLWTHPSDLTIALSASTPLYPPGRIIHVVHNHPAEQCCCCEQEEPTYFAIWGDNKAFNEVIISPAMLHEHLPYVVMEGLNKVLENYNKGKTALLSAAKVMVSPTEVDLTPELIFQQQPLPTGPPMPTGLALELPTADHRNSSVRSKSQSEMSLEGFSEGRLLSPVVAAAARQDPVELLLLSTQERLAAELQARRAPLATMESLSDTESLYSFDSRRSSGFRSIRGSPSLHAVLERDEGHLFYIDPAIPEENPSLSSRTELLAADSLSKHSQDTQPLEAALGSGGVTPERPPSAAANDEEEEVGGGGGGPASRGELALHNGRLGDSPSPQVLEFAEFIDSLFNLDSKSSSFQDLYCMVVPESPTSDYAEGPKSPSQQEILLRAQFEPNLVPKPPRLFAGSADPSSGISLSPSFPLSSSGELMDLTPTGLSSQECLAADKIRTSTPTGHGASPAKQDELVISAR
Chain of DAGLβ (hDAGLβ-FLAG) (Q8NCG7 whole entry): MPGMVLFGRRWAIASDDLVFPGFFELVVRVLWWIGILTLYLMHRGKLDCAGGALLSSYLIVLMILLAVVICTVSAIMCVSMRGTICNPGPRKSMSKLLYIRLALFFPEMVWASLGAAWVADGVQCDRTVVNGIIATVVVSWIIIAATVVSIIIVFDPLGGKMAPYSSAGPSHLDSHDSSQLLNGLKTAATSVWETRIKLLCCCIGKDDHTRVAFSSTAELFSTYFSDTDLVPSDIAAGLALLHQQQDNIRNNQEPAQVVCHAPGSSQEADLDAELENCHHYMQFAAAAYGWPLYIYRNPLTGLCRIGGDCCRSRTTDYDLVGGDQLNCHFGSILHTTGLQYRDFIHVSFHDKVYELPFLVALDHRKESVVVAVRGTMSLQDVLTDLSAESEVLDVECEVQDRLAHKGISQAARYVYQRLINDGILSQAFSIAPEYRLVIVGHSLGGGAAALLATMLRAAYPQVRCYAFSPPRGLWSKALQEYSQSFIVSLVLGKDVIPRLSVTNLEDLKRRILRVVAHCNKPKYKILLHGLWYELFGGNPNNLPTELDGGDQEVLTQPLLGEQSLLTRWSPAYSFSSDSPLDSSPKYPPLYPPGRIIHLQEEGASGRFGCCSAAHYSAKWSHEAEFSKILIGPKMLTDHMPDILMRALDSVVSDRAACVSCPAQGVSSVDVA

Regarding `CO[C@H]1CC[C@H](Cc2ccccc2)N(C(=O)n2ncc(-c3ccc(OC(F)(F)F)cc3)n2)C1` [Compound 119], the inhibition at 0.0032 µM on DAGLα (hDAGLα-FLAG) and on DAGLβ (hDAGLβ-FLAG) was 0 to 25% throughout.

Turning to `O=C(N1C[C@H](OCC2CC2)CC[C@@H]1Cc1ccccc1)n1cc(-c2ccc(OC(F)(F)F)cc2)nn1` [Compound 120, ((2R,5R)-2-benzyl-5-(cyclopropylmethoxy)piperidin-1-yl)(4-(4-(trifluoromethoxy)phenyl)-1H-1,2,3-triazol-1-yl)methanone], the inhibition at 0.0032 µM on DAGLα (hDAGLα-FLAG) was at least 75%; at DAGLβ (hDAGLβ-FLAG) it was 25 to 50%.

For `O=C(N1C[C@H](OCC2CC2)CC[C@@H]1Cc1ccccc1)n1ncc(-c2ccc(OC(F)(F)F)cc2)n1` [Compound 121], the inhibition at 0.0032 µM on DAGLα (hDAGLα-FLAG) and at DAGLβ (hDAGLβ-FLAG) was 0 to 25% throughout.

In the case of `CC(C)(C)CN(CCc1ccccc1)C(=O)n1cc(-c2ccc(OC(F)(F)F)cc2)nn1` [Compound 123, N-neopentyl-N-phenethyl-4-(4-(trifluoromethoxy)phenyl)-1H-1,2,3-triazole-1-carboxamide], the IC50 at DAGLα (hDAGLα-FLAG) and on DAGLβ (hDAGLβ-FLAG) was at most 400 nM in each case.

Consider `O=C(N(CCc1ccccc1)C1CCC1)n1cc(-c2ccc(OC(F)(F)F)cc2)nn1` [Compound 124, N-cyclobutyl-N-phenethyl-4-(4-(trifluoromethoxy)phenyl)-1H-1,2,3-triazole-1-carboxamide], for which the IC50 at DAGLα (hDAGLα-FLAG) and at DAGLβ (hDAGLβ-FLAG) was at most 400 nM throughout.

Regarding `O=C(N(CCc1ccccc1)C1CC1)n1cc(-c2ccc(OC(F)(F)F)cc2)nn1` [Compound 125, N-cyclopropyl-N-phenethyl-4-(4-(trifluoromethoxy)phenyl)-1H-1,2,3-triazole-1-carboxamide], the concentration for half-maximal inhibition (IC50) at DAGLα (hDAGLα-FLAG) and at DAGLβ (hDAGLβ-FLAG) was at most 400 nM in each case.

As for `CC(C)(C)CN(CCc1ccccc1)C(=O)n1ncc(-c2ccc(OC(F)(F)F)cc2)n1` [Compound 127, N-neopentyl-N-phenethyl-4-(4-(trifluoromethoxy)phenyl)-2H-1,2,3-triazole-2-carboxamide], the IC50 was 2000 to 10000 nM on DAGLα (hDAGLα-FLAG) and at most 400 nM at DAGLβ (hDAGLβ-FLAG).

On to `O=C(N(CCc1ccccc1)C1CCC1)n1ncc(-c2ccc(OC(F)(F)F)cc2)n1` [Compound 128, N-cyclobutyl-N-phenethyl-4-(4-(trifluoromethoxy)phenyl)-2H-1,2,3-triazole-2-carboxamide], for which the IC50 on DAGLα (hDAGLα-FLAG) lay within 2000 to 10000 nM; at DAGLβ (hDAGLβ-FLAG), 400 to 2000 nM.

Take `O=C(N(CCc1ccccc1)C1CC1)n1ncc(-c2ccc(OC(F)(F)F)cc2)n1` [Compound 129, N-cyclopropyl-N-phenethyl-4-(4-(trifluoromethoxy)phenyl)-2H-1,2,3-triazole-2-carboxamide]: the figures for the IC50 on DAGLα (hDAGLα-FLAG) and at DAGLβ (hDAGLβ-FLAG) were 2000 to 10000 nM and 400 to 2000 nM, respectively.

Consider `O=C(N(CCc1ccccc1)CC1CC1)n1cc(-c2ccc(OC(F)(F)F)cc2)nn1` [Compound 130, N-(cyclopropylmethyl)-N-phenethyl-4-(4-(trifluoromethoxy)phenyl)-1H-1,2,3-triazole-1-carboxamide], for which the IC50 on DAGLα (hDAGLα-FLAG) and at DAGLβ (hDAGLβ-FLAG) was at most 400 nM throughout.

In the case of `O=C(N(CCc1ccccc1)CC1CC1)n1ncc(-c2ccc(OC(F)(F)F)cc2)n1` [Compound 131, N-(cyclopropylmethyl)-N-phenethyl-4-(4-(trifluoromethoxy)phenyl)-2H-1,2,3-triazole-1-carboxamide], the results for the IC50 at DAGLα (hDAGLα-FLAG) and on DAGLβ (hDAGLβ-FLAG) were 2000 to 10000 nM and 400 to 2000 nM, respectively.

For `CC(C)(C)CN(CCc1ccncc1)C(=O)n1cc(-c2ccc(OC(F)(F)F)cc2)nn1` [Compound 132, N-neopentyl-N-(2-(pyridin-4-yl)ethyl)-4-(4-(trifluoromethoxy)phenyl)-1H-1,2,3-triazole-1-carboxamide], the IC50 on DAGLα (hDAGLα-FLAG) and on DAGLβ (hDAGLβ-FLAG) was at most 400 nM throughout.

For `CC(C)(C)CN(CCc1ccncc1)C(=O)n1ncc(-c2ccc(OC(F)(F)F)cc2)n1` [Compound 133, N-neopentyl-N-(2-(pyridin-4-yl)ethyl)-4-(4-(trifluoromethoxy)phenyl)-2H-1,2,3-triazole-1-carboxamide], the results for the IC50 on DAGLα (hDAGLα-FLAG) and at DAGLβ (hDAGLβ-FLAG) were 2000 to 10000 nM and 400 to 2000 nM, respectively.
